# Earlier results in patent publication US20130230587A1, “SUSTAINED RELEASE COMPOSITIONS” (Rubicon Research Private Limited, priority 2010, published 2013).
compound,measurement,setting,value
COc1ccc2c(c1)[C@]13CCCC[C@@H]1[C@H](C2)N(C)CC3 [Dextromethorphan],Time to peak plasma concentrations,absorbed from the gastrointestinal tract,approximately 2.5 hours
same,Plasma elimination half-life,in vivo,1.2 to 3.9 h
